The target in one data set is BCL-XL (Homo sapiens (Human), UniProt Q07817). Nature of the data set: Protein-protein interaction assay BCL-XL/Bad BH3 peptide (BCL-XL assay, TR-FRET). The data set is classed as binding. Conditions: read-out: BCL-XL Assay IC50 (median). Summed up:
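TR-FRET competition: 1 nM His-tagged human BCL-XL (1-212) versus 1 nM biotin-PEG Bad BH3 peptide tracer, buffer 50 mM Tris pH 7, NaCl, KF, DTT. Compound preincubated with protein 10 min at 22 °C; read after 1 h at 22 °C plus overnight at 4 °C. IC50 by 4-parameter regression of normalized ratios.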
In general terms: TR-FRET usually uses a lanthanide donor and a delayed reading to cut background.

Data set [1] concerns SUDHL5 cells. Briefly: Induction of caspase-3/7 activity in SUDHL5 cells (Assay 4). The data set is classed as cell-based. The procedure, abridged: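 Read-out: Caspase-Glo 3/7 luminescence (1 h, 37 °C) after cells, plated overnight, were treated with compounds for 3 h at 37 °C. Signal corrected for cell-free medium background and expressed relative to DMSO control mean.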
Data set [2] concerns SUDHL5 cells. Nature of the data set: Induction of cytotoxicity in SUDHL5 cells (Assay 6). The data set is classed as cell-based. The conditions noted are these: 5 h, CellTiter-Glo, read-out: Cytotox SUDHL5 IC50 (median). The procedure, abridged:
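Following overnight seeding at 37 °C, cells are treated with compound for 5 h, after which CellTiter-Glo reagent is added and luminescence measured following a 15 min room-temperature shake.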
A general note: In ATP-based viability assays light output follows the ATP content of the culture.

For a further data set, the system named is HMC-1-8 cells. Briefly: Antiproliferation assay HMC-1-8 (Assay 7). The format is cell-based. The procedure, abridged: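 Cells were plated overnight at 37° C, then compound-treated for 72 h. Viability was measured by CellTiter-Glo luminescence.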
[3] abbreviates: Homo sapiens, SU-DHL-5, 3 h, caspase-3/7 induction, 3 h, read-out: Caspase SUDHL5 EC50 (median).
The mark [4] stands for this setting: 72 h, CellTiter-Glo, read-out: Antiproli HMC-1-8 IC50 median.
Where [5] appears, read: caspase-3/7 induction, 3 h, read-out: Caspase SUDHL5 EC50 (median).
The mark [6] stands for this setting: Homo sapiens, SU-DHL-5, 3 h, read-out: Caspase SUDHL5 EC50 (median), caspase-3/7 induction, 3 h.
Where [7] appears, read: 72 h, read-out: Antiproli HMC-1-8 IC50 median, 72 h, CellTiter-Glo.
Setting [8] is: read-out: Caspase SUDHL5 EC50 (median), caspase-3/7 induction, 3 h.

Experimental findings from patent publication US11440923B2, “Substituted macrocyclic indole derivatives” (Bayer Aktiengesellschaft, priority 2017, dated 2022) are described below.

pEC50, pIC50: −log10 of the molar value. Where a name gives a salt, the structure may show the parent alone. Read-outs that look alike come from different tables or passages of the source. Some results are limits rather than exact numbers.

Sequence of BCL-XL (Q07817 1-212): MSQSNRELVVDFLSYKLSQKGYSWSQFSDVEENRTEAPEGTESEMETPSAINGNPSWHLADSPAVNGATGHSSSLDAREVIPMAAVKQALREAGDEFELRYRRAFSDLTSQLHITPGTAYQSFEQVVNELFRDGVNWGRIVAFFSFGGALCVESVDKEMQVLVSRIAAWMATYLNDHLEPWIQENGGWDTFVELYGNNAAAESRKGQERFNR

On to `CCc1c2c(nn1C)C(CCC1CCOCC1)OCCCCn1c(C(=O)O)c(CCCOc3cccc4cc(F)ccc34)c3ccc(Cl)c-2c31` (racemic) [Example 60, (rac)-4-chloro-3-ethyl-7-{3-[(6-fluoronaphthalen-1-yl)oxy]propyl}-2-methyl-(15-rac)-[2-(oxan-4-yl)ethyl]-2,10,11,12,13,15-hexahydropyrazolo[4′,3′:9,10][1,6]oxazacycloundecino[8,7,6-hi]indole-8-carboxylic Acid], for which the pIC50 (usually the IC50 on a negative log10 scale, so that one unit is a factor of ten) was 4.81 on BCL-XL, 7.11 in the data set with SUDHL5 cells [2] and 6.02 in the data set with HMC-1-8 cells (setting [4]). In addition, in the data set with SUDHL5 cells [1] (setting [3]), the pEC50 is 7.30.

Take `CCc1c2c(nn1C)C(CCCN1CCOCC1)OCCCCn1c(C(=O)O)c(CCCOc3cccc4cc(F)ccc34)c3ccc(Cl)c-2c31` (racemic) [Example 65, (rac)-4-chloro-3-ethyl-7-{3-[(6-fluoronaphthalen-1-yl)oxy]propyl}-2-methyl-(15-rac)-[3-(morpholin-4-yl)propyl]-2,10,11,12,13,15-hexahydropyrazolo[4′,3′:9,10][1,6]oxazacycloundecino[8,7,6-hi]indole-8-carboxylic Acid]: the pIC50 on BCL-XL was less than 4.70; with SUDHL5 cells [2] (Homo sapiens, SU-DHL-5, 5 h), 7.11; in the data set with HMC-1-8 cells (setting [4]), 6.40. Also, in the data set with SUDHL5 cells [1] (setting [3]), the pEC50 is 7.32.

For the compound `CCc1c2c(nn1C)C(CCC(C)(C)O)OCCCCn1c(C(=O)O)c(CCCOc3cccc4cc(F)ccc34)c3ccc(Cl)c-2c31` (racemic) [Example 74, (rac)-4-chloro-3-ethyl-7-{3-[(6-fluoronaphthalen-1-yl)oxy]propyl}-(15-rac)-(3-hydroxy-3-methylbutyl)-2-methyl-2,10,11,12,13,15-hexahydropyrazolo[4′,3′:9,10][1,6]oxazacycloundecino[8,7,6-hi]indole-8-carboxylic Acid], the pIC50 was 4.88 on BCL-XL; 7.29 in the data set with SUDHL5 cells [2] (Homo sapiens, SU-DHL-5, 5 h); 6.40 in the data set with HMC-1-8 cells (setting [4]). For the same compound, the pEC50 with SUDHL5 cells [1] (setting [3]) is 7.35.

As to `CCc1c2c(nn1C)C(Cc1ccccc1)OCCCCn1c(C(=O)O)c(CCCOc3cccc4cc(F)ccc34)c3ccc(Cl)c-2c31` (racemic) [Example 92, (rac)-(rac-15)-benzyl-4-chloro-3-ethyl-7-{3-[(6-fluoro-1-naphthyl)oxy]propyl}-2-methyl-2,10,11,12,13,15-hexahydropyrazolo[4′,3′:9,10][1,6]oxazacycloundecino[8,7,6-hi]indole-8-carboxylic Acid], the pIC50 at BCL-XL was 4.88; in the data set with SUDHL5 cells [2] (Homo sapiens, SU-DHL-5, 5 h), 5.92; in the data set with HMC-1-8 cells (setting [4]), 5.15. Besides, in the data set with SUDHL5 cells [1] (setting [3]), the pEC50 is 6.02.

For the compound `Cc1c2c(nn1C)C(CCN1CCOCC1)OCCCCn1c(C(=O)O)c(CCCOc3cccc4ccccc34)c3ccc(Cl)c-2c31` (single isomer, unassigned; enantiomer 1) [Example 14, 4-chloro-2,3-dimethyl-15-[2-(morpholin-4-yl)ethyl]-7-{3-[(naphthalen-1-yl)oxy]propyl}-2,10,11,12,13,15-hexahydropyrazolo[4′,3′:9,10][1,6]oxazacycloundecino[8,7,6-hi]indole-8-carboxylic Acid (Enantiomer 1)], the pIC50 was less than 4.70 at BCL-XL, 7.64 with SUDHL5 cells [2] and 6.42 with HMC-1-8 cells (setting [4]). Besides, the pEC50 in the data set on SUDHL5 cells [1] (setting [5]) was 8.01.

Consider `Cc1c2c(nn1C)C(CCN1CCOCC1)OCCCCn1c(C(=O)O)c(CCCOc3cccc4cc(F)ccc34)c3ccc(Cl)c-2c31` (single isomer, unassigned; enantiomer 1) [Example 17, 4-chloro-7-{3-[(6-fluoronaphthalen-1-yl)oxy]propyl}-2,3-dimethyl-15-[2-(morpholin-4-yl)ethyl]-2,10,11,12,13,15-hexahydropyrazolo[4′,3′:9,10][1,6]oxazacycloundecino[8,7,6-hi]indole-8-carboxylic Acid—N-ethylethanamine (Enantiomer 1)], for which the pIC50 at BCL-XL was less than 4.70; with SUDHL5 cells [2] (Homo sapiens, SU-DHL-5, 5 h) it was 7.96; in the data set with HMC-1-8 cells (setting [7]), 6.70. In addition, the pEC50 in the data set on SUDHL5 cells [1] (setting [6]) was 8.24.

For `Cc1c2c(nn1C)C(CCN1CCOCC1)OCCCCn1c(C(=O)O)c(CCCOc3cccc4cc(F)ccc34)c3ccc(F)c-2c31` (single isomer, unassigned; enantiomer 1) [Example 20, 4-fluoro-7-{3-[(6-fluoronaphthalen-1-yl)oxy]propyl}-2,3-dimethyl-15-[2-(morpholin-4-yl)ethyl]-2,10,11,12,13,15-hexahydropyrazolo[4′,3′:9,10][1,6]oxazacycloundecino[8,7,6-hi]indole-8-carboxylic Acid—N-ethylethanamine (Enantiomer 1)], the pIC50 on BCL-XL was less than 4.70; with SUDHL5 cells [2] (Homo sapiens, SU-DHL-5, 5 h), 7.48; in the data set on HMC-1-8 cells (setting [7]), 6.34. Besides, the pEC50 with SUDHL5 cells [1] (setting [6]) is 7.54.

As for `CCC1OCCCCn2c(C(=O)O)c(CCCOc3cccc4ccccc34)c3ccc(Cl)c(c32)-c2c1nn(C)c2C` (single isomer, unassigned; enantiomer 1) [Example 29, (+)-4-chloro-15-ethyl-2,3-dimethyl-7-{3-[(naphthalen-1-yl)oxy]propyl}-2,10,11,12,13,15-hexahydropyrazolo[4′,3′:9,10][1,6]oxazacycloundecino[8,7,6-hi]indole-8-carboxylic Acid—N-ethylethanamine Salt (Enantiomer 1)], the results for the pIC50 on BCL-XL, with SUDHL5 cells [2] and in the data set on HMC-1-8 cells (setting [7]) were 4.85, 5.96 and 4.63, respectively. For the same compound, in the data set with SUDHL5 cells [1] (setting [8]), the pEC50 is 6.08.

Take `Cc1c2c(nn1C)C(CCO)OCCCCn1c(C(=O)O)c(CCCOc3cccc4ccccc34)c3ccc(Cl)c-2c31` (single isomer, unassigned; enantiomer 1) [Example 31, (+)-4-chloro-15-(2-hydroxyethyl)-2,3-dimethyl-7-{3-[(naphthalen-1-yl)oxy]propyl}-2,10,11,12,13,15-hexahydropyrazolo[4′,3′:9,10][1,6]oxazacycloundecino[8,7,6-hi]indole-8-carboxylic Acid (Enantiomer 1)]: the pIC50 at BCL-XL is less than 4.70; in the data set with SUDHL5 cells [2] it was 6.43; in the data set with HMC-1-8 cells (72 h, CellTiter-Glo; read-out: Antiproli HMC-1-8 IC50 median), 5.17. The pEC50 with SUDHL5 cells [1] (setting [5]) was 6.55.

In the case of `CCc1c2c(nn1C)C(C(F)(F)F)OCCCCn1c(C(=O)O)c(CCCOc3cccc4ccccc34)c3ccc(Cl)c-2c31` (single isomer, unassigned; enantiomer 1) [Example 33, (+)-4-chloro-3-ethyl-2-methyl-7-{3-[(naphthalen-1-yl)oxy]propyl}-15-(trifluoromethyl)-2,10,11,12,13,15-hexahydropyrazolo[4′,3′:9,10][1,6]oxazacycloundecino[8,7,6-hi]indole-8-carboxylic Acid—N-ethylethanamine Salt (Enantiomer 1)], the pIC50 on BCL-XL is less than 4.70; in the data set with SUDHL5 cells [2], 5.96; in the data set on HMC-1-8 cells (setting [7]), 4.82. Besides, the pEC50 in the data set with SUDHL5 cells [1] (setting [8]) is 5.74.

`Cc1c2c(nn1C)C(C1CC1)OCCCCn1c(C(=O)O)c(CCCOc3cccc4ccccc34)c3ccc(Cl)c-2c31` (single isomer, unassigned; enantiomer 1) [Example 35, (+)-4-chloro-15-cyclopropyl-2,3-dimethyl-7-{3-[(naphthalen-1-yl)oxy]propyl}-2,10,11,12,13,15-hexahydropyrazolo[4′,3′:9,10][1,6]oxazacycloundecino[8,7,6-hi]indole-8-carboxylic Acid N-ethylethanamine Salt (Enantiomer 1)]: the pIC50 was less than 4.70 on BCL-XL, 5.70 in the data set on SUDHL5 cells [2] and 4.71 in the data set on HMC-1-8 cells (setting [7]). For the same compound, the pEC50 in the data set with SUDHL5 cells [1] (setting [8]) was 5.68.

For `CCc1c2c(nn1C)C(C1CC1)OCCCCn1c(C(=O)O)c(CCCOc3cccc4cc(F)ccc34)c3ccc(Cl)c-2c31` (single isomer, unassigned; enantiomer 1) [Example 39, (+)-4-chloro-15-cyclopropyl-3-ethyl-7-{3-[(6-fluoronaphthalen-1-yl)oxy]propyl}-2-methyl-2,10,11,12,13,15-hexahydropyrazolo[4′,3′:9,10][1,6]oxazacycloundecino[8,7,6-hi]indole-8-carboxylic Acid—N-ethylethanamine Salt (Enantiomer 1)], the values for the pIC50 on BCL-XL, with SUDHL5 cells [2] and in the data set with HMC-1-8 cells (setting [7]) were 4.74, 6.00 and 4.91, respectively. The pEC50 with SUDHL5 cells [1] (setting [8]) was 6.12.

As to `CCc1c2c(nn1C)C(CCOC)OCCCCn1c(C(=O)O)c(CCCOc3cccc4cc(F)ccc34)c3ccc(Cl)c-2c31` (single isomer, unassigned; enantiomer 1) [Example 42, (+)-4-chloro-3-ethyl-7-{3-[(6-fluoronaphthalen-1-yl)oxy]propyl}-15-(2-methoxyethyl)-2-methyl-2,10,11,12,13,15-hexahydropyrazolo[4′,3′:9,10][1,6]oxazacycloundecino[8,7,6-hi]indole-8-carboxylic Acid—N-ethylethanamine Salt (Enantiomer 1)], the pIC50 at BCL-XL was 4.82; with SUDHL5 cells [2], 7.26; in the data set with HMC-1-8 cells (read-out: Antiproli HMC-1-8 IC50 median; 72 h, CellTiter-Glo) it was 5.97. Further, the pEC50 with SUDHL5 cells [1] (setting [8]) is 7.85.
